Test results: PubChem BioAssay (NCI)
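GI50 marks 50% less growth. TGI is the concentration that stops growth completely.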

Columns and labels:
Assay in all cases: growth of human tumour cells (NCI), 384-well format
[1] = tested on: IGROV1 ovarian
[2] = tested on: HOP-92 NSCLC
[3] = tested on: K-562 leukemia
[4] = tested on: OVCAR-3 ovarian
[5] = tested on: CCRF-CEM leukemia
[6] = tested on: NCI-H522 lung
[7] = tested on: 786-0 renal
[8] = tested on: SNB-75 CNS
[9] = tested on: U251 glioblastoma
[10] = tested on: OVCAR-5 ovarian
[11] = tested on: KM12 colon
[12] = tested on: TK-10 renal
[13] = tested on: M14 melanoma

| SMILES | GI50 [1] | TGI [1] | GI50 [2] | TGI [2] | GI50 [3] | TGI [3] | GI50 [4] | TGI [4] | GI50 [5] | TGI [5] | GI50 [6] | TGI [6] | GI50 [7] | TGI [7] | GI50 [8] | TGI [8] | GI50 [9] | TGI [9] | GI50 [10] | TGI [10] | other results |
| --- | --- | --- | --- | --- | --- | --- | --- | --- | --- | --- | --- | --- | --- | --- | --- | --- | --- | --- | --- | --- | --- |
| O=C(NCc1ccncc1)C12CC3CC(C1)CC(c1ccc(Cl)cc1)(C3)C2 | 12.1 µM | 24.6 µM | 10.8 µM | 23.1 µM | 4.94 µM | 16.3 µM | 10.8 µM | 23.7 µM | 6.92 µM | 17.6 µM | 11.5 µM | 23.9 µM | 13.4 µM | 26.3 µM | 15 µM | 28.3 µM | 15.3 µM | 28.8 µM | 18 µM | 31.9 µM | GI50 [11]: 13.1 µM; TGI [11]: 25.9 µM; GI50 [12]: 14.2 µM; TGI [12]: 27.4 µM; GI50 [13]: 17.8 µM; TGI [13]: 31.7 µM |
| Cc1ncsc1-c1ccc(CNC(=O)[C@@H]2C[C@@H](O)CN2C(=O)[C@@H](NC(=O)C2(C#N)CC2)C(C)(C)C)cc1 | > 100 µM | > 100 µM | > 100 µM | > 100 µM | > 100 µM | > 100 µM | > 100 µM | > 100 µM | > 100 µM | > 100 µM | > 100 µM | > 100 µM | > 100 µM | > 100 µM | > 94.8 µM | > 100 µM | > 100 µM | > 100 µM | > 100 µM | > 100 µM | GI50 [11]: > 100 µM; TGI [11]: > 100 µM; GI50 [12]: > 100 µM; TGI [12]: > 100 µM; GI50 [13]: > 100 µM; TGI [13]: > 100 µM |
